Tests used:
[1] = molecular target: NAMPT (human, recombinant, C-terminally His-tagged) (Homo sapiens, UniProt P43490); experiment: Time-Resolved Fluorescence Resonance Energy Transfer (TR-FRET) Binding Assay of NAMPT; conditions: without substrates; 6.8 nM NAMPT, 200 nM probe, 3 hours equilibration
How it was run: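 Probe displacement by compound was measured with 6.8 nM NAMPT, 200 nM Oregon Green 488-conjugated nicotinamide-competitive inhibitor probe and 1 nM Tb-anti-His antibody in 50 mM HEPES pH 7.5, 100 mM NaCl, 10 mM MgCl2, 1 mM DTT, 1% glycerol, 2% DMSO (final). After 3 h at room temperature, TR-FRET was read; IC50 from four-parameter logistic fit.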

NAMPT = NAMPT (Homo sapiens, UniProt P43490); experiment: TR-FRET Binding Assay of NAMPT with PRPP; conditions: with 200 μM PRPP and 2.5 mM ATP; 2 nM NAMPT, 2 nM probe, 16 hours equilibration
How it was run: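 Run in the presence of substrates (200 μM PRPP, 2.5 mM ATP) with final 2 nM NAMPT, 2 nM probe, 1 nM Tb-anti-His antibody and 2% DMSO. Mixtures equilibrated 16 h before TR-FRET measurement so test compounds could be enzymatically modified.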

PC3 cells = experiment: NAMPT Cell Proliferation Assay; format: cell-based; conditions: Homo sapiens, PC-3, 120 h, 5 days incubation, cell viability by Cell Titer Glo
How it was run: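 Proliferation of PC3 cells treated 5 days with a 10-fold compound series (top 10 μM) was quantified by Cell Titer Glo luminescence; IC50s were fitted from percent inhibition.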

Chain of NAMPT (human, recombinant, C-terminally His-tagged) (P43490 whole entry): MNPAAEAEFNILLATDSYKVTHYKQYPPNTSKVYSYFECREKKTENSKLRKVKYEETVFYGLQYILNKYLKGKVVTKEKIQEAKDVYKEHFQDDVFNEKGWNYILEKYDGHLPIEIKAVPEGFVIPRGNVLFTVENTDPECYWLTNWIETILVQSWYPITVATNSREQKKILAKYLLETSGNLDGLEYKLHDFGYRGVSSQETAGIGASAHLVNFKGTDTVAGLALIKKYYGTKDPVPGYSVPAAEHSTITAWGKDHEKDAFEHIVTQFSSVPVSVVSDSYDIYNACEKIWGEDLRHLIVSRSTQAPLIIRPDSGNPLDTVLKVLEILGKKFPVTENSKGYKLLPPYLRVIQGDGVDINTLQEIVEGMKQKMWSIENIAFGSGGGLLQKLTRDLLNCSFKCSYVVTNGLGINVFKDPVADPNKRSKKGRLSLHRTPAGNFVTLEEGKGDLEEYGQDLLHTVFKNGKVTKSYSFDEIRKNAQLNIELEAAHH
Chain of NAMPT (P43490 whole entry): as above

| SMILES | IC50 [1] [nM] | IC50 (NAMPT) [nM] | IC50 (PC3 cells) [nM] |
| --- | --- | --- | --- |
| O=C(NCc1ccn2ccnc2c1)c1ccc(C2CCN(C(=O)c3ccncc3)CC2)cc1 [Example 535, N-(imidazo[1,2-a]pyridin-7-ylmethyl)-4-[1-(pyridin-4-ylcarbonyl)piperidin-4-yl]benzamide] | 297 | 0.325 | 28.5 |
| O=C(NCc1ccn2ccnc2c1)c1ccc(C2CCN(C(=O)c3cccnc3)CC2)cc1 [Example 537, N-(imidazo[1,2-a]pyridin-7-ylmethyl)-4-[1-(pyridin-3-ylcarbonyl)piperidin-4-yl]benzamide] | 461 | 0.23 | 43.1 |
| CC1(C(=O)N2CCC(c3ccc(C(=O)NCc4ccn5ccnc5c4)cc3)CC2)CC1 [Example 538, N-(imidazo[1,2-a]pyridin-7-ylmethyl)-4-{1-[(1-methylcyclopropyl)carbonyl]piperidin-4-yl}benzamide] | 275 | 0.514 | 3.33 |
| COc1ccccc1C(=O)N1CCC(c2ccc(C(=O)NCc3ccn4ccnc4c3)cc2)CC1 [Example 539, N-(imidazo[1,2-a]pyridin-7-ylmethyl)-4-[1-(2-methoxybenzoyl)piperidin-4-yl]benzamide] | 98.5 | 0.31 | 3.47 |
| O=C(NCc1ccn2ccnc2c1)c1ccc(C2CCN(C(=O)CC(F)(F)F)C2)s1 (stereo not drawn) [Example 540, N-(imidazo[1,2-a]pyridin-7-ylmethyl)-5-[1-(3,3,3-trifluoropropanoyl)pyrrolidin-3-yl]thiophene-2-carboxamide] | 266 | 0.305 | 74 |
| O=C(NCc1ccn2ccnc2c1)c1ccc(C2CCN(C(=O)c3ccccc3)C2)s1 (stereo not drawn) [Example 542, 5-(1-benzoylpyrrolidin-3-yl)-N-(imidazo[1,2-a]pyridin-7-ylmethyl)thiophene-2-carboxamide] | 35.1 | 0.337 | 2.89 |
| CC(C)C(=O)N1CCC(c2ncc(C(=O)NCc3ccn4ccnc4c3)s2)CC1 [Example 543, N-(imidazo[1,2-a]pyridin-7-ylmethyl)-2-[1-(2-methylpropanoyl)piperidin-4-yl]-1,3-thiazole-5-carboxamide] | 1480 | 0.383 | 386 |
| CC(C)CC(=O)N1CCC(c2ncc(C(=O)NCc3ccn4ccnc4c3)s2)CC1 [Example 544, N-(imidazo[1,2-a]pyridin-7-ylmethyl)-2-[1-(3-methylbutanoyl)piperidin-4-yl]-1,3-thiazole-5-carboxamide] | 871 | 0.437 | 647 |
| O=C(NCc1ccn2ccnc2c1)c1cnc(C2CCN(C(=O)c3ccccc3)CC2)s1 [Example 545, 2-(1-benzoylpiperidin-4-yl)-N-(imidazo[1,2-a]pyridin-7-ylmethyl)-1,3-thiazole-5-carboxamide] | 109 | 0.403 | 28.7 |
| O=C(CC1CCCC1)Nc1ccc(C(=O)NCc2ccn3ncnc3c2)cc1 [Example 546, 4-[(cyclopentylacetyl)amino]-N-([1,2,4]triazolo[1,5-a]pyridin-7-ylmethyl)benzamide] | 237 | 23.2 | 2450 |
| O=C(NCc1ccn2ccnc2c1)c1ccc(C2CN(C(=O)c3ccccc3)C2)cc1 [Example 549, 4-(1-benzoylazetidin-3-yl)-N-(imidazo[1,2-a]pyridin-7-ylmethyl)benzamide] | 81.2 | 0.224 | 9.42 |
| O=C(NCc1ccn2ccnc2c1)c1ccc(C2CN(C(=O)CC3CCOCC3)C2)cc1 [Example 551, N-(imidazo[1,2-a]pyridin-7-ylmethyl)-4-[1-(tetrahydro-2H-pyran-4-ylacetyl)azetidin-3-yl]benzamide] | 713 | 0.392 | 55.1 |
| O=C(NCc1ccn2ccnc2c1)c1ccc(C2CN(C(=O)c3cccs3)C2)cc1 [Example 552, N-(imidazo[1,2-a]pyridin-7-ylmethyl)-4-[1-(thiophen-2-ylcarbonyl)azetidin-3-yl]benzamide] | 184 | 0.543 | 42.6 |
| CC(C)CC(=O)N1CCC(O)(c2ccc(C(=O)NCc3ccn4ccnc4c3)s2)CC1 [Example 553, 5-[4-hydroxy-1-(3-methylbutanoyl)piperidin-4-yl]-N-(imidazo[1,2-a]pyridin-7-ylmethyl)thiophene-2-carboxamide] | 478 | 0.592 | 103 |
| CC(C)C(=O)N1CCC(O)(c2ccc(C(=O)NCc3ccn4ccnc4c3)s2)CC1 [Example 554, 5-[4-hydroxy-1-(2-methylpropanoyl)piperidin-4-yl]-N-(imidazo[1,2-a]pyridin-7-ylmethyl)thiophene-2-carboxamide] | 451 | 0.837 | 177 |
| CC(C)(C)CC(=O)N1CCC(O)(c2ccc(C(=O)NCc3ccn4ccnc4c3)s2)CC1 [Example 555, 5-[1-(3,3-dimethylbutanoyl)-4-hydroxypiperidin-4-yl]-N-(imidazo[1,2-a]pyridin-7-ylmethyl)thiophene-2-carboxamide] | 427 | 0.749 | 33.2 |
| O=C(NCc1ccn2ccnc2c1)c1ccc(C2(O)CCN(C(=O)c3ccccc3)CC2)s1 [Example 556, 5-(1-benzoyl-4-hydroxypiperidin-4-yl)-N-(imidazo[1,2-a]pyridin-7-ylmethyl)thiophene-2-carboxamide] | 5.43 | 0.407 | 6.55 |
| O=C(NCc1ccn2ccnc2c1)c1ccc(C2CCN(C(=O)c3ccc(F)cc3)C2)cc1 (stereo not drawn) [Example 562, 4-[1-(4-fluorobenzoyl)pyrrolidin-3-yl]-N-(imidazo[1,2-a]pyridin-7-ylmethyl)benzamide] | 218 | 0.607 | 70.9 |
| CC(C)(C)OC(=O)N1CCC(c2ccc(C(=O)NCc3ccn4ncnc4c3)cc2)CC1 [Example 563, tert-butyl 4-{4-[([1,2,4]triazolo[1,5-a]pyridin-7-ylmethyl)carbamoyl]phenyl}piperidine-1-carboxylate] | 322 | 4.19 | 5140 |

The remaining lines, values ahead:

| IC50 [1] [nM] | IC50 (NAMPT) [nM] | IC50 (PC3 cells) [nM] | SMILES |
| --- | --- | --- | --- |
| 77.6 | 0.202 | 3.04 | CC(C)C(C)C(=O)N1CCC(c2ccc(C(=O)NCc3ccn4ccnc4c3)cc2)CC1 (stereo not drawn) [Example 536, 4-[1-(2,3-dimethylbutanoyl)piperidin-4-yl]-N-(imidazo[1,2-a]pyridin-7-ylmethyl)benzamide] |
| 175 | 0.448 | 64.5 | CC(C)C(=O)N1CCC(c2ccc(C(=O)NCc3ccn4ccnc4c3)s2)C1 (stereo not drawn) [Example 541, N-(imidazo[1,2-a]pyridin-7-ylmethyl)-5-[1-(2-methylpropanoyl)pyrrolidin-3-yl]thiophene-2-carboxamide] |
| 498 | 0.423 | 25.6 | CC[C@H](C)C(=O)N1CC(c2ccc(C(=O)NCc3ccn4ccnc4c3)cc2)C1 [Example 547, N-(imidazo[1,2-a]pyridin-7-ylmethyl)-4-{1-[(2S)-2-methylbutanoyl]azetidin-3-yl}benzamide] |
| 397 | 0.471 | 74.5 | O=C(NCc1ccn2ccnc2c1)c1ccc(C2CN(C(=O)CC3CC3)C2)cc1 [Example 548, 4-[1-(cyclopropylacetyl)azetidin-3-yl]-N-(imidazo[1,2-a]pyridin-7-ylmethyl)benzamide] |
| 762 | 0.427 | 174 | CC(C)(O)C(=O)N1CC(c2ccc(C(=O)NCc3ccn4ccnc4c3)cc2)C1 [Example 550, 4-[1-(2-hydroxy-2-methylpropanoyl)azetidin-3-yl]-N-(imidazo[1,2-a]pyridin-7-ylmethyl)benzamide] |
| 167 | 0.359 | 37.4 | CC(C)S(=O)(=O)N1CC(c2ccc(C(=O)NCc3ccn4ccnc4c3)cc2)C1 [Example 557, N-(imidazo[1,2-a]pyridin-7-ylmethyl)-4-[1-(propan-2-ylsulfonyl)azetidin-3-yl]benzamide] |
| 1410 | 0.352 | 1170 | CC(C)C(=O)N1CC(Oc2ccc(C(=O)NCc3ccn4ccnc4c3)cc2)C1 [Example 558, N-(imidazo[1,2-a]pyridin-7-ylmethyl)-4-{[1-(2-methylpropanoyl)azetidin-3-yl]oxy}benzamide] |
| 681 | 0.223 | 94.3 | CC[C@H](C)C(=O)N1CC(Oc2ccc(C(=O)NCc3ccn4ccnc4c3)cc2)C1 [Example 559, N-(imidazo[1,2-a]pyridin-7-ylmethyl)-4-({1-[(2S)-2-methylbutanoyl]azetidin-3-yl}oxy)benzamide] |
| 969 | 0.312 | 844 | O=C(NCc1ccn2ccnc2c1)c1ccc(OC2CN(C(=O)CC3CC3)C2)cc1 [Example 560, 4-{[1-(cyclopropylacetyl)azetidin-3-yl]oxy}-N-(imidazo[1,2-a]pyridin-7-ylmethyl)benzamide] |
| 869 | 0.335 | 240 | O=C(NCc1ccn2ccnc2c1)c1ccc(OC2CN(C(=O)c3ccccc3)C2)cc1 [Example 561, 4-[(1-benzoylazetidin-3-yl)oxy]-N-(imidazo[1,2-a]pyridin-7-ylmethyl)benzamide] |

— patent US9187472B2 (AbbVie Inc., priority 2012, dated 2015)
